The conditions of assay [1]: literature; cited from earlier work.
For a further assay, the system named is MCF-7/ADR. The experiment in a line: In vitro cytotoxicity, MCF-7/ADR. Type of assay: cell-based. The procedure: (§1) The microculture tetrazolium assay was used to test in vitro cytotoxicity. This assay is described in Plumb, J. A. et al., 1989 Cancer Research 49, 4435-4440, which is herein incorporated by reference. The cytotoxicity of compounds towards tumor cells is measured in vitro using the assay. This assay method is based upon the ability of live, but not dead cells to reduce the yellow water soluble dye 3-(4,5-dimethylthiazol-2-yl)-2,5-diphenyltetrazolium bromide (MTT) to its water insoluble purple formazan product.
(§2) Cells are plated out in 100 μl of culture medium in the microtiter plates at a density of around 1,500-4,000 cells per well. The plates are incubated overnight to allow the cells to become adherent after which the test compound is added (100 μl of appropriate dilution per well). The cells are incubated with test compound at 37° C. for 48 h after which the compound is replaced with fresh medium. After a further 48 h incubation at 37° C., 50 μl of MTT solution (2 mg/ml) is added to each well. The plates are incubated in the dark for 4 h at 37° C. after which the medium is removed. The MTT formazan product is extracted from the cells by the addition of 200 μl DMSO followed by 50 μl of Sorensen's buffer. The plates are shaken briefly and the absorbance at 570 nm is read using a Molecular Devices UV max plate reader. […]

For a further assay, the system named is MAT-B/ADR. The experiment in a line: In vitro cytotoxicity, MAT-B/ADR. Type of assay: cell-based. The settings on record: read-out: IC50 MAT-B/ADR. The procedure: as §1, §2
In a further assay the test system is MAT-B. Description: In vitro cytotoxicity, MAT-B. In kind it is cell-based. The settings on record: read-out: IC50 MAT-B. The procedure:
as §1, §2

Another assay concerns MCF-7. Description: In vitro cytotoxicity, MCF-7. In kind it is cell-based. The procedure: as §1, §2
The conditions of assay [2]: literature; cited from earlier work. This is another data set of the same source.
The test system of assay [3] is HT 29 (Colon adenocarcinoma). Description: In vitro cytotoxicity, microculture tetrazolium (MTT) assay, HT29. Type of assay: cell-based, Human. To be noted: Homo sapiens, HT-29, 48 h with compound, further 48 h, Table 1. In short, it runs like this:
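HT29 cells exposed to compound (1:3 series, 100 μM to 1.7 nM, quadruplicate) for 48 h at 37 °C, then 48 h in fresh medium. Viability by MTT reduction, formazan absorbance at 570 nm; four-parameter logistic fit on 0-100% survival scale.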

The test system of assay [4] is SKVLB (Ovarian; multidrug resistant). The experiment in a line: In vitro cytotoxicity, microculture tetrazolium (MTT) assay, SKVLB. In kind it is cell-based, Human. To be noted: Homo sapiens; SKVLB multidrug resistant ovarian; 48 h with compound, further 48 h, MTT; Table 1. In short, it runs like this: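 Multidrug-resistant SKVLB ovarian cells, 1,500–4,000 per well, exposed to compound (1:3 dilutions, 100 μM to 1.7 nM, quadruplicate) for 48 h at 37 °C, then 48 h in fresh medium. Viability by MTT reduction, formazan read at 570 nm; four-parameter logistic fit on a 0–100% survival scale.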

The test system of the next assay is VLB/OV3. Description: Resistance ratio of SKVLB over SKOV3 cytotoxicity (VLB/OV3). In kind it is cell-based, Human. To be noted: ratio SKVLB to SKOV3; Table 1; 2880 min. The protocol: as §1
SKOV3 (Ovarian adenocarcinoma)--provided by Dr. V. Ling, Ontario Cancer Institute.
SKVLB (Ovarian; multidrug resistant)--Dr. V. Ling, Ontario Cancer Institute.
For each assay, doxorubicin is included as an inter-assay standard. This allows us to monitor the behaviour of the assay in general, and in particular, to check that the SKVLB line has maintained its resistant phenotype.
Cells are plated out in 100 μl of culture medium in the microtiter plates at a density of around 1,500-4,000 cells per well. The plates are incubated overnight to allow the cells to become adherent after which the test compound is added (100 μl of appropriate dilution per well). The cells are incubated with test compound at 37° C. for 48 h after which the compound is replaced with fresh medium. After a further 48 h incubation at 37° C., 50 μl of MTT solution (2 mg/ml) is added to each well. The plates are incubated in the dark for 4 h at 37° C. after which the medium is removed. The MTT formazan product is extracted from the cells by the addition of 200 μl DMSO followed by 50 μl of Sorensen's buffer. The plates are shaken briefly and the absorbance at 570 nm is read using a Molecular Devices UV max plate reader. Curves are fit to the MTT assay data using a four parameter logistic equation, and the data are normalized to fit a 0% to 100% survival scale.

Assay [5] concerns T47D (Ductal carcinoma of breast). Description: In vitro cytotoxicity, microculture tetrazolium (MTT) assay, T47D. In kind it is cell-based, Human. To be noted: Homo sapiens, 48 h with compound, further 48 h, Table 1. In outline: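 Adherent cells (1,500-4,000/well) were exposed to compound in 1:3 dilutions from 100 μM to 1.7 nM, in quadruplicate, for 48 h at 37° C, followed by 48 h in fresh medium. MTT formazan was read at 570 nm, and data were fitted by four-parameter logistic on a 0-100% survival scale.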

The next assay deals with Lox (Melanoma). Description: In vitro cytotoxicity, microculture tetrazolium (MTT) assay, LOX. In kind it is cell-based, Human. The settings on record: Homo sapiens, 48 h with compound, further 48 h, Table 1. In outline:
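LOX melanoma cells, 1,500–4,000 per well, exposed to compound (1:3 dilutions, 100 μM to 1.7 nM) for 48 h at 37° C., then 48 h in fresh medium. MTT reduction read at 570 nm; four-parameter logistic fit normalized to 0–100% survival.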

In assay [6] the test system is SKOV3 (Ovarian adenocarcinoma). Description: In vitro cytotoxicity, microculture tetrazolium (MTT) assay, SKOV3. Type of assay: cell-based, Human. The settings on record: Homo sapiens, SK-OV-3; SKOV3 ovarian adenocarcinoma; 48 h with compound, further 48 h, MTT; Table 1. In short, it runs like this:
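Cells plated overnight, then exposed to compound (1:3 dilutions, 100 μM to 1.7 nM, quadruplicate) 48 h at 37 °C, followed by 48 h in fresh medium. MTT 4 h, formazan extracted in DMSO/Sorensen's buffer pH 10.5, A570; four-parameter logistic fit on 0–100% survival scale.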

Counter-ions that a name gives are not always drawn.

As to `CC1OC2OC(=O)OC2C2=C1C(=O)c1c(O)cccc1C2=O` (stereo not shown) [kalafungin], the “antibacterial as well as antifungal activity” value in assay [1] is listed as “potent antibacterial as well as antifungal activity”.

Regarding `COc1cccc2c1C(=O)c1c(O)c3c(c(O)c1C2=O)C[C@@](O)(C(=O)CO)C[C@@H]3O[C@H]1C[C@H](N)[C@H](O)[C@H](C)O1` [Adriamycin, reference compound], the IC50 with MCF-7/ADR (Homo sapiens, NCI/ADR-RES, read-out: IC50 MCF-7/ADR) is 6.5 µM; in the assay with MAT-B/ADR, 2.5 µM; in the assay on MAT-B, 0.0046 µM; in the assay on MCF-7 (Homo sapiens, MCF7, read-out: IC50 MCF-7), 0.005 µM.

In the case of `COC(=O)C1CC2=C(C(=O)c3c(cc4ccccc4c3O)C2=O)C(O[C@H]2C[C@H](NC(=O)C(F)(F)F)[C@H](O)[C@H](C)O2)O1` (stereo partly shown) [pyranoanthraquinone (H)], the antitumor activity entry in [2] is reported as “found to possess antitumor activity”.

As to `CC(C)[C@H]1CC2=C(C(=O)c3ccccc3C2=O)[C@H](O[C@H]2C[C@H](NC(=O)C(F)(F)F)[C@H](O)[C@H](C)O2)O1` [BCH2052, (1'S, 1S, 3R)-5,10-dioxo-3-isopropyl-1-(2',3',6'-trideoxy-3'-trifluoroacetamido-L-lyxohexopyranose)-3,4,5,10-tetrahydro-1H-naphtho-[2,3-c]-pyran], the IC50 in assay [3] was 10.6 to 15.4 µM; in [4], 20.5 to 28.2 µM; in assay [5] it was 9.54 to 23.3 µM; in the assay with Lox (Melanoma) it was 3.04 to 3.22 µM; in assay [6], 5.4 to 7.01 µM. The VLB/OV3 in the assay on VLB/OV3 was 3.78-4.02.

With `CO[C@@H]1O[C@@H](C(=O)O)CC2=C1C(=O)c1ccccc1C2=O` (relative stereo) [BCH2045, (1,3-trans)-1-methoxy-3-carboxyl-5,10-dioxo-3,4,5,10-tetrahydro-1H-naphtho-[2,3-c]-pyran], the IC50 came to 1.11 µM in assay [3]; 15 µM in assay [4]; 13 µM in [5]; 4.6 µM in the assay on Lox (Melanoma); 5.3 µM in assay [6]. Also, in the assay with VLB/OV3, the VLB/OV3 stood at 3.

As to `CC(=O)[C@H]1CC2=C(C(=O)c3ccccc3C2=O)[C@H](OC2C[C@H](NC(=O)C(F)(F)F)[C@H](O)[C@H](C)O2)O1` (stereo partly drawn) [BCH1146, (1'S,1S,3R)-Methyl (5,10-dioxo-1-(2',3',6'-trideoxy-3'-trifluoroacetamido-4'-hydroxy-L-lyxohexopyranose)-3,4,5,10-tetrahydronaphtho [2,3-C]pyran-3-yl) ketone], the “effect in sensitive versus adriamycin resistant cell line” value with MCF-7/ADR (breast cancer, MCF-7) is “nearly as effective in the sensitive and adriamycin resistant cell line”. For the same molecule, in the assay with MCF-7 (breast cancer, MCF-7), the “potency relative to adriamycin” value is “less potent than adriamycin”.

With `CC(=O)C1CC2=C(C(=O)c3ccccc3C2=O)C(OCC2CCCCN2)O1` (racemic) [BCH2069, Methyl-(1-O-[2'-piperidinemethanol]-5,10-dioxo-3,4,5,10-tetrahydronaphthaleno-[2,3-c]pyran-3-yl) ketone, racemic, hydrochloride], the IC50 in assay [3] is 0.35 µM; in assay [4], 0.083 to 0.483 µM; in assay [5], 1.11 µM; in the assay on Lox (Melanoma), 0.0903 µM; in assay [6] it was 0.0494 µM. For the same molecule, the VLB/OV3 in the assay with VLB/OV3 was 2-9.78.

Take `CO[C@H]1C[C@H](O[C@@H]2O[C@@H](C(C)=O)CC3=C2C(=O)c2ccccc2C3=O)O[C@@H](C)[C@H]1OS(C)(=O)=O` [BCH2072, (1'-S, 1'S, 3-R)-methyl-(1-[2',3',4',6' tetradeoxy-3'-methoxy-4'-O-methanesulfonyl-L-lyxohexopyranose)-5,10-dioxo-3,4,5,10 tetrahydronaphtho-[2,3-c]pyran-3-yl) ketone]: the IC50 in assay [3] was 0.0539 to 0.101 µM; in assay [4], 0.315 to 0.991 µM; in [5], 0.0236 to 0.35 µM; with Lox (Melanoma) it was 0.102 µM; in [6], 0.0641 to 0.113 µM. Also, in the assay on VLB/OV3, the VLB/OV3 is reported as 2.79-15.46.

As to `C[C@@H]1O[C@@H](CC(=O)O)CC2=C1C(=O)c1c(O)cccc1C2=O` [nanaomycin A], the “antibacterial as well as antifungal activity” value in assay [1] is “potent antibacterial as well as antifungal activity”.

`CC1O[C@H]2CC(=O)O[C@H]2C2=C1C(=O)c1c(O)c3c(c(O)c1C2=O)[C@H]1C[C@@H](O)[C@]3(O)[C@@H](C)O1` (stereo partly shown) [Granaticin]: the antitumor activity result in [2] was “reported to show antitumor activity”.
